Active and inactive are the calls of the source. No cut-off for these calls is given here.
What was measured:
[1] = target: Cyclin-dependent kinase 7 (Homo sapiens) (UniProt P50613); experiment: Inhibition of CDK7 at < 10 uM by TR-FRET assay
[2] = target: RAC-alpha serine/threonine-protein kinase (Homo sapiens) (UniProt P31749); experiment: Inhibition of AKT at < 10 uM by IMAP assay
[3] = target: Serine/threonine-protein kinase PLK1 (Homo sapiens) (UniProt P53350); experiment: Inhibition of PLK1 at < 10 uM by TR-FRET assay
Sequence of Serine/threonine-protein kinase PLK1 (Homo sapiens) (P53350 whole entry): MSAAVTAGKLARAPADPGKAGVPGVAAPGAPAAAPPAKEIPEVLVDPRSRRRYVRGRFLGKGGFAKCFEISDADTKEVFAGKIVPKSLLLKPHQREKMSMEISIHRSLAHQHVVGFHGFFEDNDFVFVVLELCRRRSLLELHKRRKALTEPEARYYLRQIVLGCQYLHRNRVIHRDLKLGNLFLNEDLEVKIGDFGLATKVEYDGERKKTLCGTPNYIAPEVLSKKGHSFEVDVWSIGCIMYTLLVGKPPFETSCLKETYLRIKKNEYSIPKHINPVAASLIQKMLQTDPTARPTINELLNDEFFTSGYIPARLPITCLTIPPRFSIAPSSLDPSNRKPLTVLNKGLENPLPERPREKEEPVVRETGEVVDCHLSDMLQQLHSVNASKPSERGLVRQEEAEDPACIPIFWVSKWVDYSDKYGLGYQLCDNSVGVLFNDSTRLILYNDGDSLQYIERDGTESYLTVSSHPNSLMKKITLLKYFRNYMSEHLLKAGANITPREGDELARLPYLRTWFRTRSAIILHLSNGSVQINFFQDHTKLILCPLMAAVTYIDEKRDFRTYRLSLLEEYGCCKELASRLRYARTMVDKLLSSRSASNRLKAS

[4] = target: Serine/threonine-protein kinase PLK2 (Homo sapiens) (UniProt Q9NYY3); experiment: Inhibition of PLK2 at < 10 uM by TR-FRET assay
Sequence of Serine/threonine-protein kinase PLK2 (Homo sapiens) (Q9NYY3 whole entry, looked up): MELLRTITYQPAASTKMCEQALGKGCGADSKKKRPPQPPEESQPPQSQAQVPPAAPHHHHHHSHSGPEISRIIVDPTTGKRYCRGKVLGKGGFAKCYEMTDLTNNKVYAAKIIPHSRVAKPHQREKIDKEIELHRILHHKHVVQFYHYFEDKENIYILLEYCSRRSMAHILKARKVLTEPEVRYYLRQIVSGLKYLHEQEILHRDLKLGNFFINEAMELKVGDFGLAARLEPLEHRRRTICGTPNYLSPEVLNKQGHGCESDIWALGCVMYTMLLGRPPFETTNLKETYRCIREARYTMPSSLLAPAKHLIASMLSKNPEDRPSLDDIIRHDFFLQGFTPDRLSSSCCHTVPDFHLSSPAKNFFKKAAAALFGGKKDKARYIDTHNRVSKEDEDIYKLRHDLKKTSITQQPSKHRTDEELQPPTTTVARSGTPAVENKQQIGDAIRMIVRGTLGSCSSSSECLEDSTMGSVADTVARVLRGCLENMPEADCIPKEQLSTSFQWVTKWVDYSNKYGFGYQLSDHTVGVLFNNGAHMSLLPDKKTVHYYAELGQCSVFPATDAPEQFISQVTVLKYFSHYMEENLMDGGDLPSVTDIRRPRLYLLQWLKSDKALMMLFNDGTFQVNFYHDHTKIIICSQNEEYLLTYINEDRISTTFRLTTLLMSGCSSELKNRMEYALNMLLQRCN

[5] = target: Protein kinase C alpha type (Homo sapiens) (UniProt P17252); experiment: Inhibition of human recombinant PKCalpha at < 10 uM after 10 mins by radiometric assay
[6] = target: Protein kinase C beta type (Homo sapiens) (UniProt P05771); experiment: Inhibition of human recombinant PKCbeta1 at < 10 uM after 10 mins by radiometric assay
Sequence of Protein kinase C beta type (Homo sapiens) (P05771 2-671 limits assumed): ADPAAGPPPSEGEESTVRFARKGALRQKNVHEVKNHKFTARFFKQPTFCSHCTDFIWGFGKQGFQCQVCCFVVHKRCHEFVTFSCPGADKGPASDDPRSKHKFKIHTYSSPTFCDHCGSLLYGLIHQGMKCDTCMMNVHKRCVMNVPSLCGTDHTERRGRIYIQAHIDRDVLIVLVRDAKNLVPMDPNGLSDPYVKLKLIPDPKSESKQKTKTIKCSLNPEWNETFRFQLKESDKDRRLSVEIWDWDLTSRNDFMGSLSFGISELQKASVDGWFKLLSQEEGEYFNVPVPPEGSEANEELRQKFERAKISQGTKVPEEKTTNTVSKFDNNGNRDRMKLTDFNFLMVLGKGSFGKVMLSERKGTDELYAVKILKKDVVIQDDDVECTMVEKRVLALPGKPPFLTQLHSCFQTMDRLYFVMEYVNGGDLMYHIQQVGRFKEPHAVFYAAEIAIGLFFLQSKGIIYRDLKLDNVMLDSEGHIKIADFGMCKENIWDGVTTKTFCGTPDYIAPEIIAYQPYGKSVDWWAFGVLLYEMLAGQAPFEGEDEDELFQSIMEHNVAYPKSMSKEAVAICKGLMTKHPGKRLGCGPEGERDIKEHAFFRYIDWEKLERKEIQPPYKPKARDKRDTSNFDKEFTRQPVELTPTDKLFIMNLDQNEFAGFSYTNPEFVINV

[7] = target: Protein kinase C delta type (Homo sapiens) (UniProt Q05655); experiment: Inhibition of human recombinant PKCdelta at < 10 uM after 10 mins by radiometric assay
Sequence of Protein kinase C delta type (Homo sapiens) (Q05655 whole entry, looked up): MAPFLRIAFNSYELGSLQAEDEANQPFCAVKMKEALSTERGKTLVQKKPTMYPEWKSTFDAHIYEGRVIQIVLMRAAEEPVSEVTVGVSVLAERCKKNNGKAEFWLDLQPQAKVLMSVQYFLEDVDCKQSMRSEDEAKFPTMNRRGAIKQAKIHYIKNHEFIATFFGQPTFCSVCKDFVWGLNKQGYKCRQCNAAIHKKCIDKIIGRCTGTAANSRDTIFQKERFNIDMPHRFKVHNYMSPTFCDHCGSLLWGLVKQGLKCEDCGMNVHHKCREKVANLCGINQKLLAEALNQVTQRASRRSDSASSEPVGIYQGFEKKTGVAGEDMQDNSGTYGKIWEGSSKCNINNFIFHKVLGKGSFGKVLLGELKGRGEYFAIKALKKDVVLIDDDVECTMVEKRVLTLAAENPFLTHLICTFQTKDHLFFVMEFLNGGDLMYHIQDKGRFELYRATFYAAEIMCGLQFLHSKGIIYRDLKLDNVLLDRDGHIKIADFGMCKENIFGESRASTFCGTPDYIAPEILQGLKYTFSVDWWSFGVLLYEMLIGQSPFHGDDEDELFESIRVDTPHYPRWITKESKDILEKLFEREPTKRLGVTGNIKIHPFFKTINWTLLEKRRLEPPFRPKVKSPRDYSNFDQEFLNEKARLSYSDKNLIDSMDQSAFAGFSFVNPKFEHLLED

[8] = target: Calcium/calmodulin-dependent protein kinase type II subunit alpha (Homo sapiens) (UniProt Q9UQM7); experiment: Inhibition of human recombinant CAMK2alpha at < 10 uM after 10 mins by radiometric assay
Sequence of Calcium/calmodulin-dependent protein kinase type II subunit alpha (Homo sapiens) (Q9UQM7 whole entry): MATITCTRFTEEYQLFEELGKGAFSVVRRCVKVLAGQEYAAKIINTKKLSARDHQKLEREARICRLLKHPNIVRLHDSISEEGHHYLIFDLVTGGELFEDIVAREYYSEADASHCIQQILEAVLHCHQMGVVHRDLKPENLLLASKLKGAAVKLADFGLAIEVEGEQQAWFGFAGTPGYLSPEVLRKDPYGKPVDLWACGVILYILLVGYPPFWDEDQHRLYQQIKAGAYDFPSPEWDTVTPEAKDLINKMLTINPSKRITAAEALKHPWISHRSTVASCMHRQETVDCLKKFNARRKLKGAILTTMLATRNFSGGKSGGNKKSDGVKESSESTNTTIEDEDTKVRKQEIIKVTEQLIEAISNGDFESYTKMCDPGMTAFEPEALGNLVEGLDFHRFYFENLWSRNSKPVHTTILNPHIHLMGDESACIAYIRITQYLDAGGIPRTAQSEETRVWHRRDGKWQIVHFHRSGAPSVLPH

[9] = Inhibition of human recombinant PKD3 after 10 mins by radiometric assay

Sequence of RAC-alpha serine/threonine-protein kinase (Homo sapiens) (P31749 whole entry): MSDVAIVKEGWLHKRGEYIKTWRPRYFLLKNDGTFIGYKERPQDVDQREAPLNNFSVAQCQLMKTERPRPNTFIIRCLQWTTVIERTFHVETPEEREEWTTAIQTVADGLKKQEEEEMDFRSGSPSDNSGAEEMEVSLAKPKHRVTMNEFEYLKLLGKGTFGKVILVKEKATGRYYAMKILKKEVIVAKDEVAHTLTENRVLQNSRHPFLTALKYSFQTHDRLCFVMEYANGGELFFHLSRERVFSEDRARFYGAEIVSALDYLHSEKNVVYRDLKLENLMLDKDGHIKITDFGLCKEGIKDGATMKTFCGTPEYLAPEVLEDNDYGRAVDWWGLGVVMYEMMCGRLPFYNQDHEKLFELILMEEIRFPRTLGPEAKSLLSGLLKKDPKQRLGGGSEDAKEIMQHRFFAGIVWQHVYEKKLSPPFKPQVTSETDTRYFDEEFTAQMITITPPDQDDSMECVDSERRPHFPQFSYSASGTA
Sequence of Cyclin-dependent kinase 7 (Homo sapiens) (P50613 whole entry): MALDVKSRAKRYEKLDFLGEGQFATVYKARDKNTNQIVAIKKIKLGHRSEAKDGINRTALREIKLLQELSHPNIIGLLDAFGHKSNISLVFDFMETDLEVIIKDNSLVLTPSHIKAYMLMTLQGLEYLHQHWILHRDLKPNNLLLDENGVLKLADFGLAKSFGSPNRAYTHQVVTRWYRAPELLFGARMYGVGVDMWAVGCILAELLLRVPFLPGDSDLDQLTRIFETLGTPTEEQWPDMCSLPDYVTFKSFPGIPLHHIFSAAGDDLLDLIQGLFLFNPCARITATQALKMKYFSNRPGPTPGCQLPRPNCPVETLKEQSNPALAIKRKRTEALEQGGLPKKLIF

SMILES	inhibition [1]	inhibition [2]	inhibition [3]	inhibition [4]	inhibition [5]	inhibition [6]	inhibition [7]	inhibition [8]	IC50 [9]
O=C1NCCSc2c1sc1ccc(O)cc21	inactive	inactive	inactive	inactive	inactive	inactive	inactive	inactive	–
COc1ncc2sc3c(c2n1)SCCNC3=O	inactive	inactive	inactive	inactive	inactive	inactive	inactive	inactive	50 nM
O=C1NCCCc2c1[nH]c1ccc(O)cc21	inactive	inactive	inactive	inactive	inactive	inactive	inactive	< 40%	–
COc1ccc2sc3c(c2c1)SCCNC3=O	inactive	inactive	inactive	inactive	inactive	inactive	inactive	inactive	–

Continued, values first:

inhibition [1]	inhibition [2]	inhibition [3]	inhibition [4]	inhibition [5]	inhibition [6]	inhibition [7]	inhibition [8]	IC50 [9]	SMILES
inactive	inactive	inactive	inactive	inactive	inactive	inactive	< 40%	–	[N-]=[N+]=Nc1ccc2sc3c(c2c1)SCCNC3=O
inactive	inactive	inactive	inactive	inactive	inactive	inactive	inactive	–	O=C1NCCCc2c1oc1ccc(O)cc21
inactive	inactive	inactive	inactive	inactive	inactive	inactive	inactive	–	O=C1NCCCSc2c1sc1ccc(O)cc21
inactive	inactive	inactive	inactive	inactive	inactive	inactive	inactive	–	COc1ccc2sc3c(c2c1)SCCCNC3=O
